Residues, ends and D or L forms follow the SMILES beside them. *: point of attachment. Cbz = O=C(OCc1ccccc1)*
How the values were obtained:
[1] = system: HA-DISC1; test: DISC1 ubiquitination in transfected HEK293 cells, immunoprecipitation; format: cell-based, human
Description: (§1) Briefly, detergent-soluble proteins were isolated from cells by disruption in lysis buffer 20 mM Tris-HCl (pH 7.5), 150 mM NaCl, 1 mM Na2EDTA, 1 mM EGTA, 1% triton, 2.5 mM sodium pyrophosphate, 1 mM β-glycerophosphate, 1 mM Na3VO4, 1 μg ml^–1 leupeptin, 10 mM DTT with Roche protease inhibitor, phosSTOP (Roche, 04906837001). Detergent-insoluble proteins were removed by centrifugation at 10 000 g for 10 min, and the soluble fraction was retained. Cell lysates were adjusted to equal protein amount (1 μg μl^–1) using cell lysis buffer. Cell lysates normalized for the protein concentration were incubated with mouse IgG (Millipore, 12487) Protein A agarose beads for 2 h at 4 °C. […] The complexes were analyzed on SDS PAGE. […]
Antibodies used in this study are detailed in Supplementary Table 1. […] Chemiluminescent images of immune detected bands were recorded on blue-light sensitive autoradiography X-ray films, which were then developed using the Kodak X-Omat Model 2000 processor and band intensities were quantified using image J. Alternatively blots were visualized using the Licor Odyssey system and quantified using LICOR Image Studio Lite (Licor Biosciences).
Figure 1 DISC1 turnover is regulated by the ubiquitin-proteosome system. […] HA-DISC1 levels were evaluated using densitometry (bar-chart, n=3). ‘Nt’ indicates no treatment control. […]

[2] = system: HA-DISC1, HEK293 cells; test: HA-DISC1 protein level in transfected HEK293 cells; format: cell-based, human; settings: MG132 10 μM, Figure 1c, n=3
Description: HEK293 cells were sourced from ATCC (CRL-1573) and cultured as described in the manufacturer’s protocol. DMEM (SIGMA) supplemented with 10% fetal bovine serum, 2 mM L-glutamine, […] penicillin-streptomycin at 37 °C in a humidified atmosphere of 5% CO2. The cells were passaged at about 80% confluency. Cells were transfected with plasmid DNA using polyfect transfection reagent (Qiagen) according to the manufacturer’s instructions. HEK293 cells were treated with the pharmacological agents cycloheximide (C7698) and MG132 (M7449) (Sigma-Aldrich) or DISC1 disruptor peptides (custom synthesized by Severn Biotech) as described in the text.
as §1

In the case of CC(C)C[C@@H](C=O)NC(=O)[C@H](CC(C)C)NC(=O)[C@H](CC(C)C)NC(=O)OCc1ccccc1 [MG132] (Cbz-Leu-Leu-Leu-aldehyde), the “co-purification of HA-DISC1 with ubiquitin” value ([1]; MG132 10 μM, 30 min exposure, Figure 1c) is reported as “HA-DISC1 immunoprecipitates co-purify with ubiquitin after a 30 min exposure to MG132”, the “DISC1 ubiquitination with over-expressed DISC1 or ubiquitin, further effect of MG132” value ([1]; MG132 10 µM, Supplementary Figure 1a) is reported as “not enhanced further by MG132” and the “HA-DISC1 protein expression after MG132” value [2] is reported as “transiently increased”.
